Assay results: ChEMBL document CHEMBL6153170 (J Med Chem, 2025)
Values after ≈ are worked out from the molar mass of the structure shown. Active and inactive are the calls of the source. No cut-off for these calls is given here.

Assays:
[1] = molecular target: T1, Histone deacetylase 3 (Mus musculus) (UniProt O88895); assay: Inhibition of HDAC3 in mouse B16-F10 cells assessed as increase in acetylated H3 level incubated for 12 hrs by Western blot analysis; format: cell-based
T1 sequence (whole entry): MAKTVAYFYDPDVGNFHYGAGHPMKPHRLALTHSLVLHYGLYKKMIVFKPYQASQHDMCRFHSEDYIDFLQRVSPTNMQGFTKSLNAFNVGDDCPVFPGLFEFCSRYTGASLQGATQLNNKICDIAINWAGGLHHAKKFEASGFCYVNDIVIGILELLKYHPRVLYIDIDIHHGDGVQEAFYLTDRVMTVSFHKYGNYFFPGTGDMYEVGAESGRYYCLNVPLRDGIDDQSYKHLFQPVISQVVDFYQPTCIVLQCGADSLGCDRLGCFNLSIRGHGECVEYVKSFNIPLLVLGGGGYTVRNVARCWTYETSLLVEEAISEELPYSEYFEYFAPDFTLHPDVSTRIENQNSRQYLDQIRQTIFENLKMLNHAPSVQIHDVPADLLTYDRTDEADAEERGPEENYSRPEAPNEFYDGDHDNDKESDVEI

[2] = Apparent clearance during terminal phase in male Sprague-Dawley rat at 10 mg/kg, po measured after 48 hrs by triple quadrupole mass spectrometric analysis; format: ADME, organism-based; conditions: in vivo
[3] = MRT (0 to t) in male Sprague-Dawley rat at 10 mg/kg, po measured after 48 hrs by triple quadrupole mass spectrometric analysis; format: ADME, organism-based; conditions: in vivo
[4] = tested on: Jurkat; assay: Cytotoxicity against human Jurkat T cells assessed as reduction in cell viability at 0.01 to 1 uM incubated for 48 hrs; format: functional, cell-based; conditions: dose 0.01-1 µM
[5] = tested on: B16-F10; assay: Downregulation of p-STAT3 expression level in mouse B16-F10 cells at 0.1 to 2 uM incubated for 24 hrs by Western blot analysis; format: functional, cell-based; conditions: dose 0.1-2 µM
[6] = molecular target: T2, Histone deacetylase 7 (Homo sapiens, UniProt Q8WUI4); assay: Inhibition of N-terminal GST-tagged recombinant human HDAC7 (501 to 952 residues) extracted from baculovirus expression system using Ac-Leu-Gly-Lys (Tfa)-AMC as substrate preincubated for 5 mins followed by substrate addition and measured after 30 mins by fluorescence microplate reader analysis
T2 sequence (Q8WUI4 whole entry): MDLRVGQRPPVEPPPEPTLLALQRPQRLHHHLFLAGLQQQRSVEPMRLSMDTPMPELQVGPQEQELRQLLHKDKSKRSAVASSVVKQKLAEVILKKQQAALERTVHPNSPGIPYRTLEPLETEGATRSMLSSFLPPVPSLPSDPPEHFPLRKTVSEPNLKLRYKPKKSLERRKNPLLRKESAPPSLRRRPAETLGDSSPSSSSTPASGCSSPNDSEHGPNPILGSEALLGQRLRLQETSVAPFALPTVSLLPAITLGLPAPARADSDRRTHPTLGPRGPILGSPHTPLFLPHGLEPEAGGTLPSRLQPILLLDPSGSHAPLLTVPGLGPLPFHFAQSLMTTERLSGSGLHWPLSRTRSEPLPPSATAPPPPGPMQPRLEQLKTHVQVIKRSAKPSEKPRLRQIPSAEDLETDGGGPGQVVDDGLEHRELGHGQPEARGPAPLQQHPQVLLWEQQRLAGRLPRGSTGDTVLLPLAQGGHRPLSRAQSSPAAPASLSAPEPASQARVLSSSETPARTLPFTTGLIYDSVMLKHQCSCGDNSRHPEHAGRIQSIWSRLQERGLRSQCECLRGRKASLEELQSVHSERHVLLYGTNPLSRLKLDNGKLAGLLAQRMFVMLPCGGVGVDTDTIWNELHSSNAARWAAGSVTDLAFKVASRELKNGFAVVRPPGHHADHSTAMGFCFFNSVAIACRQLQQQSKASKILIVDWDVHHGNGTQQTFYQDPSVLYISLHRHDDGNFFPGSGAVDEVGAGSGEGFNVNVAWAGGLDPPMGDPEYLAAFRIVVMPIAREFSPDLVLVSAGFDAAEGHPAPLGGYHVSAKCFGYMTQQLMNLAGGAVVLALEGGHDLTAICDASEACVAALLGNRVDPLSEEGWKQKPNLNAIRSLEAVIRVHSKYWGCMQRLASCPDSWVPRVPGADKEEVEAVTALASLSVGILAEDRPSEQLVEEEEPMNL

[7] = Toxicity in C57 mouse assessed as change in GLO level at 20 mg/kg/day, IG administered for 14 days by heat map analysis; format: organism-based; conditions: in vivo, po, 336 h, time 14 day
[8] = Toxicity in C57 mouse assessed as change in ALT level at 20 mg/kg/day, IG administered for 14 days by heat map analysis; format: organism-based; conditions: in vivo, po, 336 h, time 14 day
[9] = Tmax in male Sprague-Dawley rat at 10 mg/kg, po measured after 48 hrs by triple quadrupole mass spectrometric analysis; format: ADME, organism-based; conditions: in vivo
[10] = Tmax in male Sprague-Dawley rat at 2 mg/kg, iv measured after 48 hrs by triple quadrupole mass spectrometric analysis; format: ADME, organism-based; conditions: in vivo
[11] = tested on: B16-F10; assay: Effect on HDAC6 protein level in mouse B16-F10 cells at 0.1 to 2 uM incubated for 12 hrs by Western blot analysis; format: functional, cell-based; conditions: dose 0.1-2 µM
[12] = molecular target: Programmed cell death 1 ligand 1 (Mus musculus) (UniProt Q9EP73); assay: Binding affinity to C-terminal 6His-tagged recombinant mouse PD-L1 (1 to 238 residues) expressed in HEK293 cells assessed as change in secondary structure conformation at 2 uM incubated for 30 mins by CD spectra analysis; format: cell-based
[13] = tested on: B16-F10; assay: Effect on STAT3 expression level in mouse B16-F10 cells at 0.1 to 2 uM incubated for 24 hrs by Western blot analysis; format: functional, cell-based; conditions: dose 0.1-2 µM
[14] = Toxicity in C57 mouse assessed as myelosuppression by measuring MCH level at 20 mg/kg/day, IG administered for 14 days by heat map analysis; format: organism-based; conditions: in vivo, po, 336 h, time 14 day
[15] = Aqueous solubility of compound incubated for 24 hrs by miniaturized shake flask based HPLC analysis; format: physicochemical; conditions: buffer
[16] = Toxicity in C57 mouse assessed as myelosuppression by measuring WBC level at 20 mg/kg/day, IG administered for 14 days by heat map analysis; format: organism-based; conditions: in vivo, po, 336 h, time 14 day
[17] = MRT (0 to infinity) in male Sprague-Dawley rat at 2 mg/kg, iv measured after 48 hrs by triple quadrupole mass spectrometric analysis; format: ADME, organism-based; conditions: in vivo
[18] = tested on: MCF7; assay: cells; conditions: Homo sapiens, MCF7, 48 h
[19] = tested on: B16-F10; assay: Effect on Histone H3 protein level in mouse B16-F10 cells at 0.1 to 2 uM incubated for 12 hrs by Western blot analysis; format: functional, cell-based; conditions: dose 0.1-2 µM

Chain of Programmed cell death 1 ligand 1 (Mus musculus) (Q9EP73 whole entry, the tested form may be a part): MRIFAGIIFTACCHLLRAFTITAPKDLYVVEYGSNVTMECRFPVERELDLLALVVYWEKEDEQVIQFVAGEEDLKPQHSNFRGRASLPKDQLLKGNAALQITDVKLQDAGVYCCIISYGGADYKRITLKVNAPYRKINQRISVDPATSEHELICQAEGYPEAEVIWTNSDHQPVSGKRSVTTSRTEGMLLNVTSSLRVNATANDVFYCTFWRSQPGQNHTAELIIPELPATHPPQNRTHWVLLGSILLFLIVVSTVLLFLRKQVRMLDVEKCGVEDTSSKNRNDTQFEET

- inhibition [1]: inactive
- CLz/F [2]: 25 mL/min/kg
- MRT last at 48 h [3]: 15.3 h
- IC50 [6]: > 100 µM
- Tmax [9]: 5.55 h
- Tmax [10]: 4.8 min
- solubility thermodynamic at 24 h [15]: 57 µg/mL (≈ 127 µM)
- MRT inf [17]: 7.12 h
- IC50 [18]: > 10 µM
Structure (SMILES): COc1nc(-c2cccc(-c3ccccc3)c2C)ccc1CNCCCCCCC(=O)NO
- Activity [4]: inactive
- Activity [5]: Active
- Activity [7]: Non-toxic
- Activity [8]: Non-toxic
- Activity [11]: inactive
- Activity [12]: Active
- Activity [13]: inactive
- Activity [14]: Non-toxic
- Activity [16]: Non-toxic
- Activity [19]: inactive
